Data reported in US5594024A, “Centrally actig substituted phenylazacycloalkanes” (priority 1995, dated 1997).
“Also recorded” adds a separate entry of the source.

Columns and labels:
[1] = system: non-pretreated rats; experiment: Locomotor activity and gross behavior in non-habituated (non-pretreated) rats; conditions: for Gross Behavioral Observations: non-pretreated rats
Text: Immediately after drug administration, the rats were placed in the test cages (one rat/cage) and put into the motility meters. […] Observations of gross behavior were made throughout the activity sessions through semi-transparent mirrors.
Animals used in the biochemical and motor activity experiments were male rats of the Sprague-Dawley strain (ALAB, Sollentuna, Sweden), weighing 200-300 g. The rats were kept 5 per cage with free access to water and food (except for the starved animals for the experiments with per oral administration, who were only allowed water the last 18 hours before testing), at least one week from arrival until used in the experiments.
All substances to be tested were dissolved in saline immediately before use, occasionally with the addition of a few drops of glacial acetic acid and/or moderate heating in order to obtain complete dissolution. Injection volumes were 5 mL/kg.
Analysis of variance (ANOVA) followed by Fischer's test was used for the statistical calculations.
In vivo behavioral data was obtained with rats injected with drug and 5 minutes later put into the motility chambers for the first time. The motor activity was measured for the subsequent 30 minutes (accumulated counts/30 minutes) and expressed as % of saline treated controls.

[2] = system: 5-HT receptor; experiment: 5-HTP accumulation (5-HT synthesis rate) in non-pretreated rats after NSD 1015; format: in vivo, rat (male Sprague-Dawley)
Experimental: observations are commented to the right. After the session the rats were
accumulation in the NErich cortical regions and 5HTP in the limbic
Injection volumes were 5 mL/kg.

[3] = system: DA receptor; experiment: DA metabolism (DOPAC, HVA levels) in habituated rats; format: in vivo, rat (male Sprague-Dawley); conditions: Rattus norvegicus, 1 h, read-out: DOPAC limbic
Outline: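 Rats habituated to motility meters 60 min, no NSD given; killed one hour after drug administration (injection volume 5 mL/kg). Striatal and limbic DOPAC, HVA and 5-HIAA measured by HPLC-EC, expressed as % of controls (means ±SEM).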

[4] = system: 5-HT receptor; experiment: 5-HT metabolism (5-HIAA levels) in habituated rats; format: in vivo, rat (male Sprague-Dawley); conditions: Table 3
Experimental: Footnotes Table 3. The rats were habituated to the motility meters 60 min
SEM. The rats were immediately killed after the activity session, striata
and limbic levels of DOPAC and 5HIAA were measured by means of HPLCEC. *p
In the experiments with habituated rats no NSD was administered and the animals were killed one hour after drug administration. […] The levels were expressed as % of controls (DOPAC and 5-HIAA see Table 3). The in vivo brain microdialysis experiments were performed in conscious rats as described by Waters et al., Eur. J. Pharm., 187, 425-34 (1990).
Injection volumes were 5 mL/kg. […]

[5] = biological target: T1, 5-HT1A (Rattus norvegicus, UniProt P19327); experiment: 5-HT1A radioligand binding ([3H]-8-OH-DPAT); design: species or system rat (male Sprague-Dawley)
T1 construct: the whole brain with the exception of the brainstem and cerebellum was rapidly removed; from tissue
T1 sequence (P19327 1-422): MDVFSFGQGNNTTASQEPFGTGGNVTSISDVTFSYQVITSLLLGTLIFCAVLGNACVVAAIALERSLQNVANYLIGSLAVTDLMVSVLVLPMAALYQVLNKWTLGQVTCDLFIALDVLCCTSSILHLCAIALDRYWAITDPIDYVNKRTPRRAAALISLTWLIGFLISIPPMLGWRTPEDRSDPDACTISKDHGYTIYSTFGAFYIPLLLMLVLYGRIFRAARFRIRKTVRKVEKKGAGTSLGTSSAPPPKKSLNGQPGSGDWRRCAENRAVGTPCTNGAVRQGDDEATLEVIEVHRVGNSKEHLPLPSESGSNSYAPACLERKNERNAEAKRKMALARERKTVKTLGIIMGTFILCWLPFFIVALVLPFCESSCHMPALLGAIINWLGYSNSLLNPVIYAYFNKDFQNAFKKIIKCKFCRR
Outline: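 Rat forebrain membranes (whole brain minus brainstem and cerebellum) in 50 mM Tris pH 8.0 with NaCl, CaCl2, MgCl2 and 10 μM pargyline; 1 nM [3H]-8-OH-DPAT, 15 min at 37° C., filtration. Nonspecific binding defined with 10 μM 5-HT; IC50 by semi-log plot and linear regression.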

CCCN1CCC[C@@H](c2cccc(C#N)c2)C1 [S-(-)-34, S-(-)-3-(3-Cyanophenyl-N-n-propyl)piperidine]
increase in motor activity, maximal effect ([1]; 25-200 μmol/kg, sc, dose-dependent monophasic, non-habituated rats): +60%
Gross Behavioral Observations ([1]; 50 sc): Activation
Gross Behavioral Observations ([1]; 100 sc): Activation
Gross Behavioral Observations ([1]; 200 sc): No change
brain 5-HTP formation, elevation ([2]; 25 μmol/kg, sc and above): 45-50%
5-HTP acc Limbic Region ([2]; 50 sc): 144 ± 6 % of saline controls
5-HTP acc Limbic Region ([2]; 100 sc): 148 ± 10 % of saline controls
5-HTP acc Limbic Region ([2]; 200 sc): 80 ± 12 % of saline controls
brain 5-HTP levels (in words) ([2]; non-pretreated rats): elevated brain 5-HTP levels
response vs control in vivo at 25 µmol/kg ([3]; po): 138 ± 13%
response vs control in vivo at 100 µmol/kg ([3]; sc): 226 ± 11%
brain 5-HIAA levels (in words) [4]: no statistical significant effects; also recorded: No effects on the brain levels of 5-HIAA; also recorded: failed to affect brain levels of 5-HIAA
affinity for the 5-HT1A receptors in vitro (in words) [5]: very low affinity for the 5-HT1A receptors
IC50 ([5]; [3H]-8-OH-DPAT, rat cortex, read-out: in vitro binding IC50, 5HT1A): 75 µM
